Source: patent US20120101093A1, “SUBSTITUTED IMIDAZO[1,2-A]PYRIDINE DERIVATIVES, PHARMACEUTICAL COMPOSITIONS, AND METHODS OF USE AS BETA-SECRETASE INHIBITORS” (HIGH POINT PHARMACEUTICALS, LLC, priority 2009, published 2012)

Experiments:
[1] = tested on: Aβ1-40 secreted from HEK293 cells stably expressing wildtype human APP695 protein (HEK-APPwt cells); experiment: Aβ Cell Based Assay (Aβ1-40 secretion, ELISA); conditions: Homo sapiens, HEK293, 6 h, 6 hours incubation, reduction of Aβ1-40 secretion
Method in brief: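 Cells in DMEM with 2% FBS exposed to ten compound concentrations for 6 h at 37 °C. Secreted Aβ1-40 in supernatant quantified by sandwich ELISA (82E1 capture, TMB, OD450). EC50 from percent inhibition, DAPT defining 100% inhibition, non-linear fit.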

BACE-1 enzyme = molecular target: T1, BACE-1 enzyme (Homo sapiens, UniProt P56817); experiment: BACE Fluorescence Resonance Energy Transfer (FRET) Assay; assay type: biochemical; conditions: pH 4-4.5, 30 min pre-incubation, about 1.5 hours reaction
T1 construct: purchased R & D Systems 931AS
Method in brief: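 BACE-1 enzyme pre-incubated 30 min with compound in 7.5% DMSO in 50 mM sodium acetate pH 4-4.5, 0.01% CHAPS, 0.0125% Triton X-100, 0.006% EDTA. Rhodamine/quencher peptide substrate added; ~1.5 h at room temperature, fluorescence read at 540/585 nm. IC50 or percent inhibition at one concentration.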

T1 sequence (P56817 46-457 limits assumed): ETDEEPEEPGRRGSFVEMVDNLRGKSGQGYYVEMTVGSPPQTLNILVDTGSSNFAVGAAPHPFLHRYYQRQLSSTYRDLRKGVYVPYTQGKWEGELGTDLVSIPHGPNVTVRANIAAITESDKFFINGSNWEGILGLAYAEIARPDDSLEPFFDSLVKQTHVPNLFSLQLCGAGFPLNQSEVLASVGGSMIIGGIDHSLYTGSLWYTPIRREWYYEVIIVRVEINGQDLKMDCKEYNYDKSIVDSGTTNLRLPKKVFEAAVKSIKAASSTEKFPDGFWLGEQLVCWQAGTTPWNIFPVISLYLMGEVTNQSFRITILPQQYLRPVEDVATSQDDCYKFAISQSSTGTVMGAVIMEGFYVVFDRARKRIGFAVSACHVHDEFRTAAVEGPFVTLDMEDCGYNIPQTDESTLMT

| IC50 (BACE-1 enzyme) [µM] | Compound | EC50 [1] [µM] |
| --- | --- | --- |
| 0.4 | O=C(Nc1nc2cc(-c3cccc(C(F)(F)F)c3)ccc2[nH]1)c1cn2cccc(CO)c2n1 [Example 192, 8-Hydroxymethyl-imidazo[1,2-a]pyridine-2-carboxylic acid [5-(3-trifluoromethyl-phenyl)-1H-benzoimidazol-2-yl]-amide] | 2.56 |
| 0.87 | CN1CCN(Cc2cccn3cc(C(=O)Nc4nc5cc(-c6cccc(C(F)(F)F)c6)ccc5[nH]4)nc23)CC1 [Example 194, 8-(4-Methyl-piperazin-1-ylmethyl)-imidazo[1,2-a]pyridine-2-carboxylic acid [5-(3-trifluoromethyl-phenyl)-1H-benzoimidazol-2-yl]-amide] | 6.27 |
| 0.45 | CNCc1cccn2cc(C(=O)Nc3nc4cc(-c5cccc(C(F)(F)F)c5)ccc4[nH]3)nc12 [Example 196, 8-Methylaminomethyl-imidazo[1,2-a]pyridine-2-carboxylic acid [5-(3-trifluoromethyl-phenyl)-1H-benzoimidazol-2-yl]-amide] | 5.96 |
| 0.7 | CN(C)Cc1cccn2cc(C(=O)Nc3nc4cc(-c5cccc(C(F)(F)F)c5)ccc4[nH]3)nc12 [Example 197, 8-Dimethylaminomethyl-imidazo[1,2-a]pyridine-2-carboxylic acid [5-(3-trifluoromethyl-phenyl)-1H-benzoimidazol-2-yl]-amide] | 0.76 |
| 0.94 | CC(C)CN(C)Cc1cccn2cc(C(=O)Nc3nc4cc(-c5cccc(C(F)(F)F)c5)ccc4[nH]3)nc12 [Example 199, 8-[(Isobutyl-methyl-amino)-methyl]-imidazo[1,2-a]pyridine-2-carboxylic acid [5-(3-trifluoromethyl-phenyl)-1H-benzoimidazol-2-yl]-amide] | 5.34 |
| 0.97 | O=C(Nc1nc2cc(-c3cccc(C(F)(F)F)c3)ccc2[nH]1)c1cn2ccc(CN3CCOCC3)cc2n1 [Example 201, 7-Morpholin-4-ylmethyl-imidazo[1,2-a]pyridine-2-carboxylic acid [5-(3-trifluoromethyl-phenyl)-1H-benzoimidazol-2-yl]-amide] | 0.87 |
| 0.9 | CN(C)Cc1ccn2cc(C(=O)Nc3nc4cc(-c5cccc(C(F)(F)F)c5)ccc4[nH]3)nc2c1 [Example 202, 7-Dimethylaminomethyl-imidazo[1,2-a]pyridine-2-carboxylic acid [5-(3-trifluoromethyl-phenyl)-1H-benzoimidazol-2-yl]-amide] | 4.54 |
| 0.47 | O=C(Nc1nc2cc(-c3cccc(C(F)(F)F)c3)ccc2[nH]1)c1cn2ccc(CNCc3ccncc3)cc2n1 [Example 204, 7-{[(Pyridin-4-ylmethyl)-amino]-methyl}-imidazo[1,2-a]pyridine-2-carboxylic acid [5-(3-trifluoromethyl-phenyl)-1H-benzoimidazol-2-yl]-amide] | 2.37 |
| 0.59 | CCN(C)Cc1ccn2cc(C(=O)Nc3nc4cc(-c5cccc(C(F)(F)F)c5)ccc4[nH]3)nc2c1 [Example 205, 7-[(Ethyl-methyl-amino)-methyl]-imidazo[1,2-a]pyridine-2-carboxylic acid [5-(3-trifluoromethyl-phenyl)-1H-benzoimidazol-2-yl]-amide] | 3.2 |
| 0.44 | O=C(Nc1nc2cc(-c3cccc(C(F)(F)F)c3)ccc2[nH]1)c1cn2ccc(CNCC(O)c3ccccc3)cc2n1 (stereo not drawn) [Example 206, 7-[(2-Hydroxy-2-phenyl-ethylamino)-methyl]-imidazo[1,2-a]pyridine-2-carboxylic acid [5-(3-trifluoromethyl-phenyl)-1H-benzoimidazol-2-yl]-amide] | 7.43 |
| 0.69 | O=C(Nc1nc2cc(-c3cccc(C(F)(F)F)c3)ccc2[nH]1)c1cn2ccc(CNC(CO)Cc3ccccc3)cc2n1 (stereo not drawn) [Example 207, 7-[(1-Benzyl-2-hydroxy-ethylamino)-methyl]-imidazo[1,2-a]pyridine-2-carboxylic acid [5-(3-trifluoromethyl-phenyl)-1H-benzoimidazol-2-yl]-amide] | 7.65 |
| 0.22 | COCCCNCc1ccn2cc(C(=O)Nc3nc4cc(-c5cccc(C(F)(F)F)c5)ccc4[nH]3)nc2c1 [Example 209, 7-[(3-Methoxy-propylamino)-methyl]-imidazo[1,2-a]pyridine-2-carboxylic acid [5-(3-trifluoromethyl-phenyl)-1H-benzoimidazol-2-yl]-amide] | 4.91 |
| 0.46 | O=C(Nc1nc2cc(-c3cccc(C(F)(F)F)c3)ccc2[nH]1)c1cn2c(C3=CCNCC3)cccc2n1 [Example 214, 5-(1,2,3,6-tetrahydropyridin-4-yl)-N-{5-[3-(trifluoromethyl)phenyl]-1H-benzimidazol-2-yl}imidazo[1,2-a]pyridine-2-carboxamide] | 5.12 |
| 0.41 | CN1CC=C(c2cccc3nc(C(=O)Nc4nc5cc(-c6cccc(C(F)(F)F)c6)ccc5[nH]4)cn23)CC1 [Example 215, 5-(1-methyl-1,2,3,6-tetrahydropyridin-4-yl)-N-{5-[3-(trifluoromethyl)phenyl]-1H-benzimidazol-2-yl}imidazo[1,2-a]pyridine-2-carboxamide] | 5.35 |
| 0.9 | CN1CCC(c2cccc3nc(C(=O)Nc4nc5cc(-c6cccc(C(F)(F)F)c6)ccc5[nH]4)cn23)CC1 [Example 219, 5-(1-methylpiperidin-4-yl)-N-{5-[3-(trifluoromethyl)phenyl]-1H-benzimidazol-2-yl}imidazo[1,2-a]pyridine-2-carboxamide] | 7.48 |
| 0.29 | CNC(=O)c1cccc2nc(C(=O)Nc3nc4cc(-c5cc(F)cc(Cl)c5)ccc4[nH]3)cn12 [Example 226, Imidazo[1,2-a]pyridine-2,5-dicarboxylic acid 2-{[5-(3-chloro-5-fluoro-phenyl)-1H-benzoimidazol-2-yl]-amide} 5-methylamide] | 2.14 |
| 0.31 | CN(C)C(=O)c1cccc2nc(C(=O)Nc3nc4cc(-c5cc(F)cc(Cl)c5)ccc4[nH]3)cn12 [Example 227, Imidazo[1,2-a]pyridine-2,5-dicarboxylic acid 2-{[5-(3-chloro-5-fluoro-phenyl)-1H-benzoimidazol-2-yl]-amide} 5-dimethylamide] | 1.65 |
| 0.28 | COCCNC(=O)c1cccc2nc(C(=O)Nc3nc4cc(-c5cc(F)cc(Cl)c5)ccc4[nH]3)cn12 [Example 228] | 1.34 |
